Calls of active or inactive are those of the source.
Experiments:
[1] = target: T1, Mannose-6-phosphate isomerase (Homo sapiens, UniProt P34949); assay: MPI enzyme activity inhibition – biochemical, fluorescence intensity, coupled assay, primary screen (AID 1209)
T1 sequence (P34949 whole entry): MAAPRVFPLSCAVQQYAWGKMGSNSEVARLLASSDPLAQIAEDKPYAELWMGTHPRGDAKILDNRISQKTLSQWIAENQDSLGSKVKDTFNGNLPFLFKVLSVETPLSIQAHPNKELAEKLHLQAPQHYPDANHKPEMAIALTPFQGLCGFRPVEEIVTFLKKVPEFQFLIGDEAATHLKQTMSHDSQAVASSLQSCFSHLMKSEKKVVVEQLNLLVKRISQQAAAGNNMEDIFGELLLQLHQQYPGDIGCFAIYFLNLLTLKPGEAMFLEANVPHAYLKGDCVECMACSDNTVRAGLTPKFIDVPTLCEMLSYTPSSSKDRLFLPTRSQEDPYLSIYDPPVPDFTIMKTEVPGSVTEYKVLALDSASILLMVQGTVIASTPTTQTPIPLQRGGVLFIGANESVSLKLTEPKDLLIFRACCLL

[2] = target: T2, Carboxy-terminal domain RNA polymerase II polypeptide A small phosphatase 1 (Homo sapiens, UniProt Q9GZU7); assay: CTDSP1 inhibitors, concentration-response, biochemical, absorbance readout, ultra-high-throughput screen actives (AID 540297); type: functional
T2 sequence (Q9GZU7 whole entry): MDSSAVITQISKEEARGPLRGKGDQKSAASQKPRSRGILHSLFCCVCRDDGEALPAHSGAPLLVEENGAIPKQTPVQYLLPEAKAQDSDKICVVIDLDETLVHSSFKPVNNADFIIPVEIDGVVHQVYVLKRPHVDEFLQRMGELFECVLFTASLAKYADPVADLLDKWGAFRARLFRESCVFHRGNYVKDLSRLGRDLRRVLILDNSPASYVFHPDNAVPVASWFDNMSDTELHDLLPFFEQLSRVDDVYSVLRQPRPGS

HT-1080 = assay: HT1080 cell viability loss – fluorescence readout (AID 620); type: functional, cell-based; settings: Homo sapiens
Estrogen receptor beta [3] = target: T3, Estrogen receptor beta (Homo sapiens, UniProt Q92731);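 note: recombinant ER-beta bound to coactivator SRC1 peptide in presence of estradiol agonist; inhibitors block coactivator peptide binding and lower the FRET signal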
[4] = target: Luciferin 4-monooxygenase (Photinus pyralis, UniProt P08659); assay: Counter Screen for Luciferase-based Assay Positives. [Related pubchem assays: 620, 618, 411 ]
Bcl-2-like protein 10 = target: T4, Bcl-2-like protein 10 (Homo sapiens, UniProt Q9HD36); assay: Bcl-B/TR3 peptide binding disruption – biochemical, fluorescence polarization, FITC-TR3 peptide, selectivity assay for Bfl-1 inhibitor project, primary screen (AID 748);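 note: fluorescence polarization from a fluorescein-labelled TR3 peptide binding purified Bcl-B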
T4 sequence (Q9HD36 whole entry): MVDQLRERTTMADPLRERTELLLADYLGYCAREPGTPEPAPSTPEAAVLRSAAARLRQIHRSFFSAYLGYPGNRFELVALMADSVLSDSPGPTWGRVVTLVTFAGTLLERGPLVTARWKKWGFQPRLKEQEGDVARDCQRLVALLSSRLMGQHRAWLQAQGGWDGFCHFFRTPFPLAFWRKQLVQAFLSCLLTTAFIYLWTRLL

Estrogen receptor beta [5] = target: T3, Estrogen receptor beta; assay: blockers of SRC-3 recruitment to ERβ – biochemical, ELISA, streptavidin-HRP readout, orthogonal assay, confirmation (AID 1060)
Estrogen receptor = target: T5, Estrogen receptor (Homo sapiens, UniProt P03372);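 note: potency for inhibiting coactivator peptide recruitment to the receptor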
T5 sequence (P03372 whole entry): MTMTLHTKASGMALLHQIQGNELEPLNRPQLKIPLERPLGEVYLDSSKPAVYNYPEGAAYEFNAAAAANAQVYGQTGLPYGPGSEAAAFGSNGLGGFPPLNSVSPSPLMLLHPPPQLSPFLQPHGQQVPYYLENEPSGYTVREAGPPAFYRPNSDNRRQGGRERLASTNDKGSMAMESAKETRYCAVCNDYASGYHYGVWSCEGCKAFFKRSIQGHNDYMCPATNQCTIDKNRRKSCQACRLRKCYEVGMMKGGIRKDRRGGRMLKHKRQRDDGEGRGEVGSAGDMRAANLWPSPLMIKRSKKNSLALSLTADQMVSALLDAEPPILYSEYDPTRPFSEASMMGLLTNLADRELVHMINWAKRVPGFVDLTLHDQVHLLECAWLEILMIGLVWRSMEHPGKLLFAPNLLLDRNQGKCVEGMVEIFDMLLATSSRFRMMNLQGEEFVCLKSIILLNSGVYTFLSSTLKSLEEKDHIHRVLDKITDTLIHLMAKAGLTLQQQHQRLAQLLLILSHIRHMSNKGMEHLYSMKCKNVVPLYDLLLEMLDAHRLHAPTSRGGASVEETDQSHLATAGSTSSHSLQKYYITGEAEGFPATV

[6] = target: Neurotensin receptor type 1 (Homo sapiens, UniProt P30989); type: functional;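 note: Image-based confirmatory dose-response assay measuring agonist activity at NTR1; NTR1-expressing U2OS osteosarcoma cells imaged for beta-arrestin GFP spot formation; agonist potency where compounds increase beta-arrestin recruitment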
[7] = viability of PTEN-deleted HCT116 cells – cell-based, HCT116 PTEN knockout, dose response (AID 1047); type: functional;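 note: HCT116 colon tumor cells with PTEN knocked out; cells exposed to compound for 60 hours before readout; potency for loss of cell viability measured by luminescence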
[8] = Trypanosoma cruzi growth suppression in host cells – NIH3T3 host cells, beta-gal luminescence, confirmation (AID 2044); type: functional, cell-based;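 note: intracellular parasites grown in NIH/3T3 mouse fibroblasts as host cells; luminescent beta-galactosidase reporter signal from transgenic T. cruzi replicating inside host cells; inhibitors lower the luminescence signal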
[9] = NIH3T3 cell viability loss – ATP luminescence, mouse fibroblasts, counter-screen, dose response (AID 2010); type: functional, cell-based;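 note: cells exposed to compound for about 90 hours before reading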
[10] = viability of HCT116 lacking mutant beta-catenin – cell-based, human colon tumor, dose response (AID 1045); type: functional;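 note: HCT116 colon tumor cells with beta catenin knocked out; cells exposed to compound for 60 hours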
[11] = viability of uninfected HEp-2 cells – cell-based, HTS, cytotoxicity control for RSV inhibitor project, dose response (AID 2410); type: functional; settings: human respiratory syncytial virus
NS3 = NS3 (Hepatitis C virus, UniProt A3EZJ3); assay: PubChem AID 2173; design: species or system Hepacivirus hominis
[12] = Luminescence Cell-Based Dose Retest to Confirm Inhibitors of Cancer Stem Cells. [Related pubchem assays (depositor defined):AID2717, AID2721]; type: functional; settings: Homo sapiens
[13] = A cytotoxicity screen of small molecule inhibitors of the PhoP region in Salmonella typhi identified in the primary screen. [Related pubchem assays: 1850, 1864, 1985 ]; type: functional
[14] = target: T6, Ubiquitin-conjugating enzyme E2 N (Homo sapiens, UniProt P61088); type: functional
T6 sequence (P61088 whole entry): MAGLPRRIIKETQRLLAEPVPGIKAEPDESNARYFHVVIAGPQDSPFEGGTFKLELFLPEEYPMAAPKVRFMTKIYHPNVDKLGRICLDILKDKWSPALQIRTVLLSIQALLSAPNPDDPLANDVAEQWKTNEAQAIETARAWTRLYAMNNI

Bcl-2-related protein A1 = target: T7, Bcl-2-related protein A1 (Mus musculus, UniProt Q07440); type: functional;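 note: confirmatory dose–response counterscreen on Bfl-1, used to check hits from a UBC13 polyubiquitin inhibitor campaign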
T7 sequence (Q07440 whole entry): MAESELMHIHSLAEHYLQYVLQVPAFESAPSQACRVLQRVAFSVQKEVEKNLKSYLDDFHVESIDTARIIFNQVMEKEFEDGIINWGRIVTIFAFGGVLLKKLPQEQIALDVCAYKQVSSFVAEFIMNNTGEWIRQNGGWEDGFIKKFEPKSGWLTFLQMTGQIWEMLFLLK

[15] = decrease of insulin promoter-GFP reporter – imaging, high-content screening, mouse beta cells (AID 1628); type: functional; settings: MIN6
[16] = target: T8, Apoptotic protease-activating factor 1 (Homo sapiens, UniProt O14727); type: functional
T8 sequence (O14727 whole entry): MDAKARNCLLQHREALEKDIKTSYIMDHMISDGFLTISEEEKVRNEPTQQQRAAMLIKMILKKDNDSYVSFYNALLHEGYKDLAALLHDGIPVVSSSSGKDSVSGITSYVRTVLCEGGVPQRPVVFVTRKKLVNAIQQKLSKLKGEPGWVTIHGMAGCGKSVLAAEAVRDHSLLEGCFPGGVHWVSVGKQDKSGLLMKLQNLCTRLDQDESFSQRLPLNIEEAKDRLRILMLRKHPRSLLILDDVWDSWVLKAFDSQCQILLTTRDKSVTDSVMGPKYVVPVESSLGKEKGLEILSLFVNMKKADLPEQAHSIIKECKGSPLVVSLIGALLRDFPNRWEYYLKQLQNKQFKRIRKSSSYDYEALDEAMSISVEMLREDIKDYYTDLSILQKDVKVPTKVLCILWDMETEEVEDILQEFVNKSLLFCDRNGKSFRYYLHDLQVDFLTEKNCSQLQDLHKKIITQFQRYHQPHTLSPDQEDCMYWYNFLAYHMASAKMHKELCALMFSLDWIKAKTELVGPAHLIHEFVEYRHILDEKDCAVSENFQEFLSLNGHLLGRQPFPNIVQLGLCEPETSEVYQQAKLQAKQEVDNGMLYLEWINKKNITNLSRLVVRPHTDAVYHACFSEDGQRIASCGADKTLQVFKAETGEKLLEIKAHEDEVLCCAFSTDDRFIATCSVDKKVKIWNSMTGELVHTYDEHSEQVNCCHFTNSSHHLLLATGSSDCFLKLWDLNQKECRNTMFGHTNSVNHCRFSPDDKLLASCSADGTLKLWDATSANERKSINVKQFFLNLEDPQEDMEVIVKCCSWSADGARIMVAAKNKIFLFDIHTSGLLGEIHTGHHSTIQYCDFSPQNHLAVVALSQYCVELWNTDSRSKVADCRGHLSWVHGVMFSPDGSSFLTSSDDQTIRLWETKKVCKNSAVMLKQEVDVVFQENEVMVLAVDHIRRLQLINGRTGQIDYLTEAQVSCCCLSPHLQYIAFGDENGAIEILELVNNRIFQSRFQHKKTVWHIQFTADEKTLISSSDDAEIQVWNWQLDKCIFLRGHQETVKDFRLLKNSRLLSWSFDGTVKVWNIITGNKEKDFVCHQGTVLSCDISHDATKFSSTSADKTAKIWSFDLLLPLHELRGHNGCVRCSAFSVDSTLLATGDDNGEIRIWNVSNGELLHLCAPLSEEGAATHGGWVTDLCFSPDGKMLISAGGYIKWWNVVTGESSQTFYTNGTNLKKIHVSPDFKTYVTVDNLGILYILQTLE

[17] = target: T6, Ubiquitin-conjugating enzyme E2 N; type: functional; remark: listed apart in the source
[18] = MIN6 cell viability loss – mouse insulinoma, cytotoxicity control, dose response (AID 2122); type: functional;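 note: confirmatory high-throughput counterscreen run to flag cytotoxic compounds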
[19] = target: T9, Heat shock factor protein 1 (Mus musculus, UniProt P38532); assay: enhancement of HSF1-driven luciferase signal – cell-based, NIH3T3, luminescence, dose retest, confirmation (AID 435004); type: functional;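 note: stress induced by proteasome inhibitor MG132 added 30 min after compound; luciferase reporter driven by HSF1 response element in NIH3T3 cells; actives raise luminescence as potentiators of the MG132 stress response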
T9 sequence (P38532 whole entry): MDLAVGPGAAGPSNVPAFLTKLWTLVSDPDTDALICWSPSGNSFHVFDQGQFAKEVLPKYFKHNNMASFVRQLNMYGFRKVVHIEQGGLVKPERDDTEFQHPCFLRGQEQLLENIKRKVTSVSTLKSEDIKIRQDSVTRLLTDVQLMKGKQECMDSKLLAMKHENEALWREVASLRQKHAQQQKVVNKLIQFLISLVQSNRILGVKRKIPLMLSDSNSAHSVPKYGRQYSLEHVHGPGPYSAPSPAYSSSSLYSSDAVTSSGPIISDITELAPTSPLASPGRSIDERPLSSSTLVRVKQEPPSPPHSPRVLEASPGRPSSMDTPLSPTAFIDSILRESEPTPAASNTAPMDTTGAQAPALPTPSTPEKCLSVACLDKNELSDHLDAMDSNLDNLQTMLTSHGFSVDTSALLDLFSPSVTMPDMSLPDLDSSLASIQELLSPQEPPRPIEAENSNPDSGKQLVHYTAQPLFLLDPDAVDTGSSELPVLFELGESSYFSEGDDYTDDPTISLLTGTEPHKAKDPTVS

[20] = system: Streptococcus sp. 'group A'; assay: Streptococcus pyogenes SK(-)GAS viability under kanamycin – luminescence, BacTiterGlo, confirmation, counter-screen for streptokinase expression inhibitor project, dose response (AID 1900); type: functional, organism-based
Streptococcus = assay: GAS UMAA2166 growth inhibition – luminescence, BacTiterGlo, counter-screen for streptokinase expression inhibitor project, dose response (AID 1915); type: functional, organism-based;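 note: potency for reduction of bacterial viability or growth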
[21] = microbe, parasite or virus in culture; type: functional; settings: Mycobacterium tuberculosis
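Throughout, for AC50: cells exposed to compound for roughly 70 hours or longer before luminescence read.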

Chain of Neurotensin receptor type 1 (P30989 whole entry): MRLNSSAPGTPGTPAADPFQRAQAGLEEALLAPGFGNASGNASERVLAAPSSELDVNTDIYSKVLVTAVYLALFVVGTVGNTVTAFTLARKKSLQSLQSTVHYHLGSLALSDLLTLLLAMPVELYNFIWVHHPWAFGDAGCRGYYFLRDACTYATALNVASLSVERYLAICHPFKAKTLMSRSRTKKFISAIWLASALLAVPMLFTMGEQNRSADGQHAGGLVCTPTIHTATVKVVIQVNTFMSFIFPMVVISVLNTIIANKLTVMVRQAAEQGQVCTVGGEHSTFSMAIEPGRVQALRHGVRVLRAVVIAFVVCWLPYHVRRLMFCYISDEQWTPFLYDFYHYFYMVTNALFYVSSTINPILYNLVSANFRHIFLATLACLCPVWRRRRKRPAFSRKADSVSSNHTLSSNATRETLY
T3 sequence (Q92731 whole entry): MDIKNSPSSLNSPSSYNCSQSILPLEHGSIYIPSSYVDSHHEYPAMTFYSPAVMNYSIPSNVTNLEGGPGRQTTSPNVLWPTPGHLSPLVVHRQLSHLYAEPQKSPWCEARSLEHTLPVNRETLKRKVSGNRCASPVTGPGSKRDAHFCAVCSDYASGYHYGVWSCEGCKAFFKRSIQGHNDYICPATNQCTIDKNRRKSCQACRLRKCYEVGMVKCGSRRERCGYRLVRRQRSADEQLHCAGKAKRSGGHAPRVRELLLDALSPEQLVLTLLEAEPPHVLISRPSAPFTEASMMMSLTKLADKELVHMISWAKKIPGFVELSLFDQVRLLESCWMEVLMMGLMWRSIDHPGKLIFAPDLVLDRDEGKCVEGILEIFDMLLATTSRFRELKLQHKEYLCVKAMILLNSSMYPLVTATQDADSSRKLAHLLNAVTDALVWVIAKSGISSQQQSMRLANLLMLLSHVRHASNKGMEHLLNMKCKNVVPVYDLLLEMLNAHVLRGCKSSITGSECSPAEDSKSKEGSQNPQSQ
Chain of Luciferin 4-monooxygenase (P08659 whole entry): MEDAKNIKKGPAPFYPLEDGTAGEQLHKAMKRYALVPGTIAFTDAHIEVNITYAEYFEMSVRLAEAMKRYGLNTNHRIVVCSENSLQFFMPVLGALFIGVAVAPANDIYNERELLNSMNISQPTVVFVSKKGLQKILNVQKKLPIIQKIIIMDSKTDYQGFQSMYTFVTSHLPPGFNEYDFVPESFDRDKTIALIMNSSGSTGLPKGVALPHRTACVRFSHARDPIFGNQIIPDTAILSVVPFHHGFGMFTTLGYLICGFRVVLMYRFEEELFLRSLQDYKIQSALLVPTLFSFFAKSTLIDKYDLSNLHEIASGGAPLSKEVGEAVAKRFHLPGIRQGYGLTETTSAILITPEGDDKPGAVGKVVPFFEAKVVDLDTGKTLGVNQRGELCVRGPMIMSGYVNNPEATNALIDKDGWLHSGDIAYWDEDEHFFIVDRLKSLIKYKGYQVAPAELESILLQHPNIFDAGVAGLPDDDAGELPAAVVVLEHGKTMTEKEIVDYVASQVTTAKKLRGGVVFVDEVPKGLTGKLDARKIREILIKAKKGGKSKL
Chain of NS3 (A3EZJ3 whole entry): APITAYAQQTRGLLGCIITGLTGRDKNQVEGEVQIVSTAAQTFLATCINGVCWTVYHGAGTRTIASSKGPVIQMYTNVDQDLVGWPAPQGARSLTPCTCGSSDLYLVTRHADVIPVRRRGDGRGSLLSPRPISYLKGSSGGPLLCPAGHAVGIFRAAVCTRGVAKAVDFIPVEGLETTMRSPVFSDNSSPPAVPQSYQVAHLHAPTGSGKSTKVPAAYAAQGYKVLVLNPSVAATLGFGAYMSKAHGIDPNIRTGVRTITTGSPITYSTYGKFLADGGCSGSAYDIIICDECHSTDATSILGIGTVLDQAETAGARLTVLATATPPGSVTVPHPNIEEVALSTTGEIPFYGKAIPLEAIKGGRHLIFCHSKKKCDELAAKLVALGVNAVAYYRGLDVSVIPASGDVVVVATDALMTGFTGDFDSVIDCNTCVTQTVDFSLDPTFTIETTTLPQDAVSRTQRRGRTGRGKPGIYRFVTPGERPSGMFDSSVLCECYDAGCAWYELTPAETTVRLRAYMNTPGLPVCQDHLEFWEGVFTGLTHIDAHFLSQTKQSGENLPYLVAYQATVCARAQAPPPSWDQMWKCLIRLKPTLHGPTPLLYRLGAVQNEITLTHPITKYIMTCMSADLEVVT

CC[n+]1c(C)n(-c2ccccc2)c2ccc(NC(C)=O)cc21
IC50 [1]: > 50 µM (not active)
IC50 [2]: 5.18 µM (active)

CCc1ccc(NC(=O)c2noc3c2CCC3)cc1
EC50 (HT-1080): > 50 µM (not active)
IC50 (Estrogen receptor beta [3]): 5.5 µM (active)
EC50 [4]: 1.4 µM (active)
IC50 (Bcl-2-like protein 10): 21.7 µM (active)
IC50 (Estrogen receptor beta [5]): < 0.023 µM (not active)
IC50 (Estrogen receptor): 7.94 µM (active)

CCCCCn1c(N2CCC(Cc3ccccc3)CC2)nc2c1c(=O)[nH]c(=O)n2C
EC50 [6]: 9.08 µM (active)
EC50 [7]: 11.9 µM (active)
EC50 [8]: 0.971 µM (active)
EC50 [9]: > 60 µM (not active)
EC50 [10]: 12.7 µM (active)

O=[N+]([O-])c1ccccc1S(=O)(=O)Nc1cccc(-c2ccc(N3CCOCC3)nn2)c1
IC50 (cells): 16.8 µM (active)
CC50 [11]: > 50 µM (active)

Cc1ccc(CCCOC(=O)C[N+]2(C)CCCC2)cc1
IC50 [1]: > 50 µM (not active)
IC50 [2]: 11 µM (active)

O=C1c2ccccc2C(=O)N1CCCCN(C(=O)c1cc2ccccc2oc1=O)c1ccc(Cl)cc1
IC50 (cells): 21.9 µM (active)

CC(C)C(C)(C#N)NC(=O)CSc1nc2scc(-c3ccco3)c2c(=O)n1-c1ccccc1 (stereo unspecified)
IC50 (NS3): 11.3 µM (not active)

C=CCn1c(SCC(=O)OC)nc2sc3c(c2c1=O)CCN(C)C3
IC50 (Bcl-2-like protein 10): 71 µM (inactive)

COC(=O)c1sc2nc(N3CCCCC3)c3c(c2c1N)CCCC3
AC50 [12]: 2.95 µM (active)
IC50 (cells): > 50 µM (active)
CC50 [11]: > 50 µM (active)

CCN=C(S)Nc1cc(-c2ccc(Cl)cc2)[nH]n1
IC50 [1]: > 50 µM (not active)
EC50 [13]: > 50 µM (active)

COc1cc(C(=O)OCC(=O)Nc2c(F)c(F)c(F)c(F)c2F)cc(OC)c1OC
IC50 (Estrogen receptor): > 50 µM (not active)

CCCCCCOc1ccc(/C(C)=N/NC2=NCCN2)cc1[N+](=O)[O-]
EC50 [6]: 18.9 µM (active)
AC50 [12]: 4.9 µM (active)
IC50 [14]: 12.6 µM (active)
IC50 (Bcl-2-related protein A1): > 20 µM (inactive)
IC50 [15]: 2.34 µM (active)
IC50 [16]: 70.5 µM (active)
EC50 [8]: 2.15 µM (active)
IC50 [17]: 12.1 µM (active)
IC50 [18]: 2.11 µM (active)
EC50 [19]: > 260 µM (inactive)
EC50 [9]: > 30 µM (not active)

C/C(=N/Nc1cc(-c2ccccc2)nc(-c2ccccc2)n1)c1ccc(O)cc1
EC50 [6]: 15.9 µM (active)
EC50 [20]: 1.52 µM (active)
EC50 (Streptococcus): 1.56 µM (active)
CC50 [21]: 18.2 µM (active)
